{"source": "patent US9908850B2", "about": "“Salt forms of [R—(R*,R*)]-2-(4-fluorophenyl)-β,δ-dihydroxy-5-(1-methylethyl)3-phenyl-4-[(phenylamino)carbonyl]-1H-pyrrole-1-hepatonic acid” (Pfizer Inc., priority 2004, dated 2018)"}
{"assay": "hygroscopicity of the salt forms", "format": "physicochemical", "conditions": "solid salt; considered to be non-hygroscopic"}
{"molecule": "[R—(R*,R*)]-2-(4-Fluorophenyl)-β,δ-dihydroxy-5-(1-methylethyl)-3-phenyl-4-[(phenylamino)carbonyl]-1H-pyrrole-1-heptanoic acid,N-(phenylmethyl)benzenemethanamine [dibenzylamine]", "hygroscopicity": "non-hygroscopic"}
{"molecule": "[R—(R*,R*)]-2-(4-Fluorophenyl)-β,δ-dihydroxy-5-(1-methylethyl)-3-phenyl-4-[(phenylamino)carbonyl]-1H-pyrrole-1-heptanoic acid, tetrahydro-2H-1,4-oxazine [morpholine]", "hygroscopicity": "non-hygroscopic"}
{"molecule": "[R—(R*,R*)]-2-(4-Fluorophenyl)-β,δ-dihydroxy-5-(1-methylethyl)-3-phenyl-4-[(phenylamino)carbonyl]-1H-pyrrole-1-heptanoic acid, tertiary-butylamine [erbumine]", "hygroscopicity": "non-hygroscopic"}
{"molecule": "CC(C)c1c(C(=O)Nc2ccccc2)c(-c2ccccc2)c(-c2ccc(F)cc2)n1CC[C@@H](O)C[C@@H](O)CC(=O)O.c1ccc(CNCCNCc2ccccc2)cc1", "note": "(relative stereo) [benzathine, [R—(R*,R*)]-2-(4-Fluorophenyl)-β,δ-dihydroxy-5-(1-methylethyl)-3-phenyl-4-[(phenylamino)carbonyl]-1H-pyrrole-1-heptanoic acid,N,N^1-bis(phenylmethyl)-1,2-ethanediamine]", "hygroscopicity": "non-hygroscopic"}
{"molecule": "CC(C)c1c(C(=O)Nc2ccccc2)c(-c2ccccc2)c(-c2ccc(F)cc2)n1CC[C@@H](O)C[C@@H](O)CC(=O)O.c1ccc(CCNCc2ccccc2)cc1", "note": "(relative stereo) [benethamine, [R—(R*,R*)]-2-(4-Fluorophenyl)-β,δ-dihydroxy-5-(1-methylethyl)-3-phenyl-4-[(phenylamino)carbonyl]-1H-pyrrole-1-heptanoic acid, N-benzyl-2-phenylethylamine]", "hygroscopicity": "non-hygroscopic"}
{"molecule": "[R—(R*,R*)]-2-(4-Fluorophenyl)-β,δ-dihydroxy-5-(1-methylethyl)-3-phenyl-4-[(phenylamino)carbonyl]-1H-pyrrole-1-heptanoic acid,N-ethylethanamine [diethylamine]", "hygroscopicity": "non-hygroscopic"}
